Entries after “also recorded” stand apart in the source; their conditions may differ. Where two headings read alike, the source gives them in different places. Residues, ends and D or L forms follow the SMILES beside them. *: point of attachment. X1 = CN(C)c1ccc2c(-c3ccc(N4C(=O)CC(*)C4=O)cc3C(=O)[O-])c3ccc(=[N+](C)C)cc-3oc2c1
Assays:
SpGpsB1-63 = target: T1, SpGpsB1-63 (Streptococcus pneumoniae, UniProt Q8DR57); test: Fluorescence polarisation binding to SpGpsB1-63; conditions: FP, relative to wild-type SpPBP2a23-45
T1 construct: The SpGpsB1-63 expression construct (pET28SpGpsB1-63) was prepared by PCR amplification of gpsB; His6 (N, cleaved yes); made in house; host or cells: E. coli BL21(DE3)
Description: (§1) 75 the BsGpsB5-64:BsPBP11-17 complex.

BsGpsB1-68 = target: T2, BsGpsB1-68 (Bacillus subtilis, UniProt P0CI74); assay type: binding; conditions: FP, relative to wild-type peptide
T2 construct: His6 (N, cleaved yes); made in house; host or cells: E. coli BL21(DE3)
Description: as §1

[1] = Circular dichroism of PBP peptides (helicity); assay type: physicochemical; conditions: CD, 222 nm, 4 °C, 20 mM sodium phosphate pH 7.3, 25 μM peptide
Protocol: CD spectra were recorded on a JASCO J-810 spectropolarimeter with a PTC-4235 Peltier temperature controller using 1 mm path length quartz cuvettes. For full wavelength scans a scan speed of 10 nm^−1min^−1 and a response time of 4 s were used, the final spectra were the average of at least four measurements. BsPBP1_1-32 CD spectra were recorded at 4 °C in a buffer of 20 mM sodium phosphate, pH 7.3 at a peptide concentration of 25 μM. Peptide helical contents were estimated from molar ellipticities at 222 nm using the equation helix = [θ]222 nm / (39,500(1–2.57/n))[78] where n is the number of residues in the peptide. LmPBPA1_1-15 CD spectra were analysed at 40 μM in 20 mM sodium phosphate buffer, pH 7.8, for samples containing 0, 40 and 60% trifluoroethanol (TFE). For samples containing 80% TFE, 5 mM sodium phosphate buffer, pH 7.8, was used. The CD spectra of BsGpsB1-68 proteins were measured at a concentration of 4.5 μM in a buffer of 20 mM sodium phosphate (pH 7.8) 150 mM NaCl. For thermal melt experiments, a response time of 8 s and scan rate of 1 °C^−1min^−1 were used. All thermal melts were reversible as CD spectra recorded before and after the melts in the wavelength range 200–240 nm could be superimposed.

LmGpsB = test: BACTH (bacterial two-hybrid) interaction with LmGpsB; assay type: cell-based, Listeria monocytogenes; conditions: E. coli BTH101, 30 °C, photographed after 24 and 48 h; LmPBPA1 variants as T25-PBPA1ΔGT-TP
Description: The BACTH system[63] was used for analysis of protein:protein interactions. First, LmGpsB was screened against LmPBPA1 (lmo1892) variants to identify residues in LmPBPA1 that are important for binding LmGpsB. To facilitate screening, we used a T25 fragment of Bordetella pertussis adenylate cyclase that had been fused to the N-terminal 91 amino acids of LmPBPA1 to create a T25-LmPBPA1 fusion containing the N-terminal cytoplasmic mini-domain and the transmembrane helix, but lacking lacking the extracellular glycosyltransferase and transpeptidase domains (T25-PBPA1ΔGT-TP) in plasmid pSH437[21]. LmPBPA1 residues that corresponded to the BsGpsB binding motif of BsPBP1 (Thr7, Arg8, Tyr11, Arg12) and additional positively charged amino acids (Lys14, Lys20, Lys21, Lys22, Lys25, Arg26, Lys28 and Arg29) in T25-PBP A1ΔGT-TP were replaced with alanine prior to screening against GpsB-T18. The pSH437 plasmid was mutated by Quikchange mutagenesis using the primer pairs SHW744/SHW754 (T7A, pSH485), SHW746/SHW747 (R8A, pSH486), SHW755/SHW756 (Y11A, pSH487), SHW748/SHW749 (R12A, pSH488), SHW757/SHW758 (K14A, pSH489), SHW759/SHW760 (K20A, pSH490), SHW761/SHW762 (K21A, pSH491), SHW763/SHW764 (K22A, pSH492), SHW765/SHW766 (K25A, pSH493), SHW767/SHW768 (R26A, pSH494), SHW769/SHW770 (K28A, pSH495) and SHW771/SHW772 (R29A, pSH496).
pJR164 and pJR169 were constructed by cloning sepF (primers JR334/JR335 and XbaI/KpnI digestion) into pKT25 and p25-N, respectively. pJR165 and pJR170 were generated by cloning ezrA into pKT25 and p25-N, respectively, using primers JR339/JR340 and XbaI/KpnI for digestion. pJR172 and pJR174 were obtained by cloning zapA into pKT25 and p25-N, respectively, using primers JR337/JR338 and PstI/KpnI. pJR213 was constructed by amplification of divIB with primers JR353/JR354 and cloning into pKT25 using XbaI/KpnI. pJR214 was generated by PCR amplification of divIC with primers JR355/JR356 and cloning into pKT25 using XbaI/KpnI. mreBH was amplified by PCR using oligonucleotides JR368/JR369 and cloned into pKT25 and p25-N using XbaI/KpnI, resulting in pJR233 and pJR236, respectively. pJR242 and pJR243 were obtained by cloning mreC into pKT25 and p25-N, respectively, using primers JR364/JR365 and PstI/KpnI digestion. pbpA2 was cloned into pKT25 using oligonucleotides SHW153/SHW154 and XbaI/KpnI to create pJR250. pbpB1 was amplified with primers SHW157/SHW158 and cloned with SmaI/EcoRI into pKT25, yielding pSH236. pbpB2 was amplified with primers SHW155/SHW156 and cloned into pKT25 after PstI/BamHI digestion, yielding plasmid pSH235. pbpB3 was amplified using primers SHW159/160 and cloned by PstI/BamHI digestion into pKT25, resulting in pSH237. Finally, pSH484 was obtained by removing the N-terminal domain from gpsB present on plasmid pSH226 in a PCR with the primer pair SHW752/SHW753.
Plasmids encoding the respective genes fused to the N- or C-termini of the T18- or the T25-fragment of the Bordetella pertussis adenylate cyclase were co-transformed into E. coli BTH101. Transformants were selected on LB agar plates containing ampicillin (100 µg^−1mL^−1), kanamycin (50 µg^−1mL^−1), X-Gal (40 µg^−1mL^−1) and IPTG (0.1 mM) and photographs were taken after 24 and 48h growth at 30 °C. The BACTH experiments in Fig. 2b and Supplementary Figure 3C, D were repeated at least twice.

## CC[C@H](C)[C@H](NC(=O)[C@@H]1CCCN1C(=O)[C@H](CSC1CC(=O)N(c2ccc(-c3c4ccc(=[N+](C)C)cc-4oc4cc(N(C)C)ccc34)c(C(=O)[O-])c2)C1=O)NC(=O)[C@@H](NC(=O)[C@H](CCC(N)=O)NC(=O)[C@H](C)NC(=O)[C@H](CC(C)C)NC(=O)[C@H](CCCCN)NC(=O)[C@H](CCCCN)NC(=O)[C@H](CCCNC(=N)N)NC(=O)[C@H](CC(=O)O)NC(=O)[C@H](CO)NC(=O)[C@H](CCCNC(=N)N)NC(=O)[C@H](CO)NC(=O)[C@H](CCCCN)NC(=O)[C@H](CCCNC(=N)N)NC(=O)[C@H](CC(C)C)NC(=O)[C@@H](NC(=O)[C@@H](NC(=O)[C@H](CO)NC(=O)[C@H](CC(=O)O)NC(=O)[C@H](CO)NC(=O)[C@H](CC(=O)O)NC(=O)[C@H](CCSC)NC(=O)[C@H](CO)NC(=O)CN)[C@@H](C)O)[C@@H](C)CC)C(C)C)C(=O)O (stereo partly drawn) [TAMRA-SpPBP2a23-45 Arg31Lys] (H-GSMDSDSTILRKSRSDRKKLAQVC(X1)PI-OH)
SpGpsB1-63
  reduction in affinity for SpGpsB1-63: 2 fold

## CSCC[C@H](NC(=O)[C@H](CO)NC(=O)CN)C(=O)N[C@@H](C)C(=O)N[C@@H](CC(=O)O)C(=O)N[C@@H](CCC(N)=O)C(=O)N[C@@H](Cc1ccccc1)C(=O)N[C@@H](CC(N)=O)C(=O)N[C@@H](C)C(=O)N[C@@H](CCCNC(=N)N)C(=O)N[C@@H](CCC(=O)O)C(=O)N[C@@H](C)C(=O)N[C@@H](CCCNC(=N)N)C(=O)N[C@@H](CCCNC(=N)N)C(=O)N[C@@H](CCCCN)C(=O)N[C@@H](C)C(=O)N[C@@H](CC(N)=O)C(=O)N[C@@H](CSC1CC(=O)N(c2ccc(-c3c4ccc(=[N+](C)C)cc-4oc4cc(N(C)C)ccc34)c(C(=O)[O-])c2)C1=O)C(=O)N[C@@H](CCCCN)C(=O)N[C@@H](CO)C(=O)N[C@@H](CO)C(=O)N1CCC[C@H]1C(=O)N[C@@H](CO)C(=O)N1CCC[C@H]1C(=O)N[C@@H](CCCCN)C(=O)N[C@@H](CCCCN)C(=O)NCC(=O)N[C@@H](CCCCN)C(=O)N[C@@H](CCCCN)C(=O)N[C@@H](CCCNC(=N)N)C(=O)N[C@@H](CCCCN)C(=O)N[C@@H](CCCCN)C(=O)NCC(=O)NCC(=O)O (stereo partly drawn) [TAMRA-BsPBP11-32 Ser7Ala] (H-GSMADQFNAREARRKANC(X1)KSSPSPKKGKKRKKGG-OH)
BsGpsB1-68; listed as BsPBP1_1-32^Ser7Ala
  reduction in affinity for BsGpsB1-68: at least 6 fold
BsGpsB1-68; listed as BsPBP11-32Ser7Ala
  reduction in affinity for BsGpsB1-68: > 5 fold
[1]
  helical residues corresponding to helical content: ~ 6 residues
[1]; average of at least four measurements
  α-helical content: 19%

B1: LmMreC: L. monocytogenes MreC (protein)
chain: MPQFFLNKRLIILLISIIVLVALVGFSLRDRENASWPEQFVKDVVGFGENIVAKPTSFISGAVDGVVDLKNTYTENQHLKERLEELAQLESEVADLKKENKDLKESLDITDSIRDYDPLNASVISRNPTNWNDQVEIDKGSSDGVKPDMAVTTPSGLIGKVTTTGAKSATVELLTSSDVKNRVSAKVQGKENAFGIINGYDSDTKLLELKQLPYDMKFKKGQKVVTSGLGGKFPAGIFIGTIEKVETDKMGLSQTAFIKPGADMYDLNHVTVLKRSAEAGTTDDDTTSSDTTGGQ
modifications: left off: T25 fragment of Bordetella pertussis adenylate cyclase (vectors pKT25 and p25-N), end not stated, kept
notes: L. monocytogenes MreC
LmGpsB
  BACTH interaction with LmGpsB: turned blue after one day of incubation; also recorded: turned blue after 2 days incubation

B2: LmDivIB: L. monocytogenes DivIB (protein)
chain: MAENKRVISIENRIPELKKYRKKKLVRHLAILIGIFVILIAITLYFLSPLSKLDKIAVSGNKQLTENEVRKESGLEIGEFVIGISNGKTEDALKKNTLIKDATVSKEGLNDVQINITEFKTIGYQQQDGKYYDVLESGIMLTDQPRQFPIGNDLLFQNFKNGKTLEKMVDQINKLPKDVVSSISEVIYSPTKSDKNHIKLYMNDGNQVSADISTFAEKMQHYPAIVAQLAKGQKGVIDIEVGSYFQSYYQQNAEKKATEEAAKEKKETNE
modifications: left off: T25 fragment of Bordetella pertussis adenylate cyclase (vector pKT25), end not stated, kept
notes: L. monocytogenes DivIB
LmGpsB
  BACTH interaction with LmGpsB: turned blue after 2 days incubation

B3: LmGpsB: L. monocytogenes GpsB (self-interaction) (protein)
chain: MTSEQFEYHLTGKEILEKEFKTGLRGYSPEDVDEFLDMVIKDYSTFTQEIEALQAENIRLVQELDNAPLRTSTQPAPTFQAAAQPAGTTNFDILKRLSNLEKHVFGNKLDDNE
modifications: left off: T18 fragment of Bordetella pertussis adenylate cyclase, C-terminal, kept
LmGpsB
  BACTH interaction with LmGpsB: turned blue after one day of incubation

B4: LmSepF: L. monocytogenes SepF (protein)
chain: MGLSNKFKSFFFLDEEEEYYEEEVAREPEPMQKKTKKEKPNKNRFYAVEEDDAKVVSMQGAQFSSRMVLAEPRVYAEAQELADYLKEYKSVVVNLQRISHDQATRIVDFLSGTVYALGGDIQRVGNNIFLCTPDNVEVDGSISEMLDEQNFM
modifications: left off: T25 fragment of Bordetella pertussis adenylate cyclase (vectors pKT25 and p25-N), end not stated, kept
notes: L. monocytogenes SepF
LmGpsB
  BACTH interaction with LmGpsB: turned blue after one day of incubation

— paper PMC6335420, “The cell cycle regulator GpsB functions as cytosolic adaptor for multiple cell wall enzymes” (Nature Communications, 2019)
